Laboratory results as given in patent publication US9566330B2, “Immunogenic composition for immune system modulation and use thereof, method for treating and preventing diseases, method for inducing cell regeneration and method for restoring immune response” (priority 2011, dated 2017).

Legend:
[1] = system: multiresistant Acinetobacter baunnamii; test: Cultures of the injury area, peripheral blood and central catheter: antibiotic sensitivity; format: cell-based, Acinetobacter baumannii
Description: Initial assessment of the patient's injuries in the operating room on 29 Jan. […] As described, the DECA immunotherapy was applied to these areas. It is interesting to note that on this occasion cultures of internal secretions and tissue fragments were performed.

[2] = system: Septicemia (Pseudomonas aeruginosa, Acinetobacter baunnamii, Proteus mirabiles); test: Clinical case, patient J-P: septicemia with infected complex wounds; format: in vivo, human; settings: 6 Feb. 2011; Polymyxin B 20,000 IU/kg twice daily and other antimicrobials
Text: The patient was admitted to the ICU of Hospital Alemao Oswaldo Cruz for debridement and application of treatment with DECA which took the following form: • Application of 1.8 cc of the DECA composition divided into 2 applications of 0.9 cc per composition along the 10 main lymphatic territories. • 3-4 cm distance margin between applications to facilitate the reading of the evolution of the treatment at an interval of 4±1 days. These applications were made together with the surgical debridement (on average 1 to 2 times per week). • Administration of 36 extra perilesional compositions of 1.8 cc of each DECA in two applications of 0.9 cc per set, skirting the following open injuries without possibility of suture: the left inguinal region, the lateral side of the left thigh, the anterior left thigh and medial aspect of the left thigh, instep region and left lateral malleolus of the right leg. • Application of recombinant human interleukin-2 at low doses, at a receptor saturation level with a concentration of 1 to 2 million units per m^2 of the patient's body surface located in the region of the extra DECA applications. […]

Row | Molecule | Pre-immunotherapy cultures (29/01/2011): sensitivity of the isolate ([1]; Central catheter) | Pre-immunotherapy cultures (29/01/2011): sensitivity of the isolate ([1]; Injury in the left thigh) | toxicity [2] | Pre-immunotherapy cultures (29/01/2011): sensitivity of the isolate ([1]; Peripheric blood) | sensitivity of the isolate ([1]; isolates of left thigh wound, peripheral blood and central catheter, result of 1 Feb. 2011)
1 | C[C@H]1[C@H](NC(=O)/C(=N\OC(C)(C)C(=O)O)c2csc(N)n2)C(=O)N1S(=O)(=O)O [Aztreonam] | baumannii only sensitive | baumannii only sensitive | – | – | –
2 | Polymyxin B | baumannii only sensitive | baumannii only sensitive | acute renal failure with oliguria | baumannii only sensitive | sensitive
